Measurements: PMC10996616 (bioRxiv, 2024)

What was measured:
[1] = molecular target: PaFS (full-length fusicoccadiene synthase) (Diaporthe amygdali, UniProt A2PZA5); assay: EnzChek pyrophosphate release, steady-state kinetics, A360; format: biochemical; conditions: Mg2+ 2.5 mM, pH 7.5; cyclization to fusicoccadiene; cyclase domain
[2] = molecular target: PaFSCY (individual cyclase domain of fusicoccadiene synthase) (Diaporthe amygdali, UniProt A2PZA5); assay: as above; format: biochemical; conditions: Mg2+ 2.5 mM, pH 7.5; cyclization to fusicoccadiene
Sequence of PaFSCY (individual cyclase domain of fusicoccadiene synthase) (A2PZA5 1-344): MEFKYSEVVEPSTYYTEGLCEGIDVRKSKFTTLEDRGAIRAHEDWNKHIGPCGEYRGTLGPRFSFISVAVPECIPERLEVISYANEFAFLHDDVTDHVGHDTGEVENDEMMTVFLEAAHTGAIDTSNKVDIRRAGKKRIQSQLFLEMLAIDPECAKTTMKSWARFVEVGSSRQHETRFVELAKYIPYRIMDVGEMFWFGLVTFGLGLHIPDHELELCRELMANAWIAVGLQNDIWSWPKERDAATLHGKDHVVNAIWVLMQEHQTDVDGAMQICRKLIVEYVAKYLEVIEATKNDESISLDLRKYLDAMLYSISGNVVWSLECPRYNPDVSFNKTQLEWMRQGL

Sequence of PaFS (full-length fusicoccadiene synthase) (A2PZA5 whole entry, the tested form may be a part): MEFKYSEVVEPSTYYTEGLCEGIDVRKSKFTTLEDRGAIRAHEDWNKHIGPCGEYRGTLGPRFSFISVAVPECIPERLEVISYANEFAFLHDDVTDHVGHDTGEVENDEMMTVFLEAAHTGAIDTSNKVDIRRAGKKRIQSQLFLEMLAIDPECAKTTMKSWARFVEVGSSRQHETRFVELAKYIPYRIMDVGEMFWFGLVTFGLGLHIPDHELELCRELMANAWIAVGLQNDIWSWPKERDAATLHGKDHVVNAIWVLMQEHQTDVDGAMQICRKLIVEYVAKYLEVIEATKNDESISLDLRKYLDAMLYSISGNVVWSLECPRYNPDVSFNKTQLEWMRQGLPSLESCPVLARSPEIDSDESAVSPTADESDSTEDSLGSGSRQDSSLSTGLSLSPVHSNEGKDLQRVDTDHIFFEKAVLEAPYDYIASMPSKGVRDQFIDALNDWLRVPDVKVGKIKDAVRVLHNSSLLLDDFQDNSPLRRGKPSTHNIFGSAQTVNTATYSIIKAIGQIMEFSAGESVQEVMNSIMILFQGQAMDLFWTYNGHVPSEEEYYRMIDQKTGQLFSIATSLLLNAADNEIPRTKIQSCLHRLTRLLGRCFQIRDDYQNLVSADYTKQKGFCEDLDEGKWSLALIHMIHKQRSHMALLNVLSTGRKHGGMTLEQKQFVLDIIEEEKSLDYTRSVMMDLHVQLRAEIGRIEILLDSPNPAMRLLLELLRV

Compound: CC(C)=CCC/C(C)=C/CC/C(C)=C/CC/C(C)=C/COP(=O)(O)OP(=O)(O)O [GGPP, geranylgeranyl diphosphate]
- KM [1]: (PaFS, PaFSLL, and PaFSCY) are most efficient
- KM [2]: (PaFS, PaFSLL, and PaFSCY) are most efficient
